Test results as given in patent US7465708B2, “Branched cationic copolymers and methods for antimicrobial use” (priority 2002, dated 2008).
Like-named read-outs stand apart in the source and are kept apart here. Positions of bridges follow the written chain, without caps; N, C: chain ends. Chains are numbered I, II in the order given. No end group written: not given here.

Assays:
mice = assay: Acute in vivo toxicity after IV injection; details: for side effects of surviving mice (scale): one symbol per mouse; for in vivo toxicity (in words): administered intravenously; for histology of major organs: mice who died from polymers at higher dosages
Excerpt: One of the major limitations of cationic peptides is their potenitial toxicity when administered systemically. As a result, we tested the acute toxicity of these polymers after injecting them IV. […] Conversely, linear polymers that had minimal to moderate antibacterial properties had the greatest in vivo toxicity. […] Even if one arginine adjacent to the histidine residue replaces the amino terminal lysine in the HK polymer (e.g., HK-R), the polymer was still very toxic when administered intravenously. The in vivo toxicity of linear HK polymers from most to least is as follows: HR>HK-R>>HK. […] There were parallels between in vitro and in vivo toxicity studies (Tables 2 and 3). […] The data is consistent with linear polymers interacting and inhibiting ionic channels of the cardiovascular system (similar to neurotoxins). Intravenous injection of linear polymers with arginine or lysines adjacent (or near) to histidines should be avoided.

MDA-MB-435 cells = assay: In vitro toxicity: reduction in cell number after incubation with polymers; type: cell-based
Excerpt: In vitro toxicity of these polymers was then examined on a malignant cell line (MDA-MB-435).

[1] = tested on: gram negative bacteria E. coli transformed with a kanamycin-resistant plasmid; assay: In vitro bacteria inhibition (MIC, turbidity O.D. 600 nm in LB broth); type: cell-based
Protocol: Bacteria; A gram negative bacteria E. coli transformed with a kanamycin-resistant plasmid was used in these experiments and grown in LB media (Biofluids, Rockville, Md.).
For in vitro studies, several polymers were tested for their ability to inhibit gram negative bacteria. […] The histidine and lysine ratio and their sequence order have an important role in the-polymers' effects. […] Since it is likely that H^3KN4b has the greatest ability to chelate key transitional elements, chelation of key elements in LB media, separate from the polymer's role of binding to the bacteria membrane, is unlikely to have a major role in the inhibition of bacteria. • 3) The sequence order of lysine and histidine in the branched polymer has a major role in the inhibition of bacteria. Altering these sequences affects the antibacterial activity of […]. Sufficient cationic amino acids are critical for binding whereas the exact function of histidine is unclear. Data supports that cationic amino acids need to be evenly distributed in branches, particularly at N-terminal ends. Too many cationic amino acids in the polymer, however, reduce antibacterial activity. • 4) Histidine may have a role in the interruption of iron transport systems and/or it may enhance the hydrophobic interactions of the polymer with the bacteria membrane.

[2] = 50 μg/ml, 6 h incubation in DMEM/10% serum, counted 24 h later vs untreated cells
[3] = 150 μg/ml, 6 h incubation in DMEM/10% serum, counted 24 h later vs untreated cells
[4] = 100 μl/ml, 6 h incubation in DMEM/10% serum, counted 24 h later vs untreated cells

Substance	number of mice who survive treatment / number of mice in treatment group (mice; 75 μg IV)	number of mice who survive treatment / number of mice in treatment group (mice; 150 μg IV)	side effects of surviving mice (scale) (mice; 150 μg IV)	number of mice who survive treatment / number of mice in treatment group (mice; 300 μg IV)	number of mice who survive treatment / number of mice in treatment group (mice; 600 μg IV)	histology of major organs (mice)	further results
RHKHKHKHKGKHKHKHKHK [HK-R, [R-H-K-H-K-H-K-H-K-G-K-H-K-H-K-H-K-H-K]]	2/2	2/2	+, +	0/2	0/2	no evidence of pathology	in vivo toxicity (in words) (mice): very toxic
I: KHKHHKHHKHHKHHKHHKHKKKK / II: KHKHHKHHKHHKHHKHHKHK / III: KHKHHKHHKHHKHHKHHKHK / IV: KHKHHKHHKHHKHHKHHKHK (amide I:21-IV:C, I:22-III:C, I:23-II:C) [H^2K4b, [KHKHHKHHKHHKHHKHHKHK]4K3]	2/2	2/2	–	2/2	2/2	–	Reduction In Cell Number (MDA-MB-435 cells; [2]): 5%; Reduction In Cell Number (MDA-MB-435 cells; [3]): 22%; Reduction In Cell Number (MDA-MB-435 cells; [4]): 12%
RHRHRHRHRGRHRHRHRHR [linear RH, [R-H-R-H-R-H-R-H-R-G-R-H-R-H-R-H-R-H-R]]	2/2	2/2	+++, +	0/2	0/2	no evidence of pathology	side effects of surviving mice (scale) (mice; 75 μg IV): + (moderate reduction in activity in for less than 1 min); in vivo toxicity (in words) (mice): most toxic of the linear polymers
I: KHHHKHHHKHHHKHHHKKKK / II: KHHHKHHHKHHHKHHHK / III: KHHHKHHHKHHHKHHHK / IV: KHHHKHHHKHHHKHHHK (amide I:18-IV:C, I:19-III:C, I:20-II:C) [H^3K4b, [K-H-H-H-K-H-H-H-K-H-H-H-K-H-H-H-K]4K3]	2/2	2/2	–	2/2	2/2	–	Reduction In Cell Number (MDA-MB-435 cells; [2]): 0%; Reduction In Cell Number (MDA-MB-435 cells; [3]): 0%; Reduction In Cell Number (MDA-MB-435 cells; [4]): 0%; in vitro toxicity (in words, measured by cell number) (MDA-MB-435 cells; MDA-MB-435 cells): no observed toxicity; toxicity after repeated dosing (in words) (mice; three 600 μg dosages, each separated by 4 h): no evidence of toxicity
KHKHKHKHKGKHKHKHKHK [linear HK, [K-H-K-H-K-H-K-H-K-G-K-H-K-H-K-H-K-H-K]]	2/2	2/2	++, +	2/2	0/2	no evidence of pathology	Reduction In Cell Number (MDA-MB-435 cells): 68%; in vitro toxicity (in words, measured by cell number) (MDA-MB-435 cells): significantly more toxic; side effects of surviving mice (scale) (mice; 300 μg IV): +++, +++
I: KHKHHKHHKHHKHHKHHKHKK / II: KHKHHKHHKHHKHHKHHKHK (amide I:21-II:C) [H^2K2b, [K-H-H-K-H-H-K-H-H-K-H-H-K-H-H-K-H-K]2K]	–	–	–	–	–	–	antimicrobial activity (in words) [1]: only moderate reduction on bacteria growth
I: KHKHKHKHKGKHKHKHKHKKKK / II: KHKHKHKHKGKHKHKHKHK / III: KHKHKHKHKGKHKHKHKHK / IV: KHKHKHKHKGKHKHKHKHK (amide I:20-IV:C, I:21-III:C, I:22-II:C) [HK4b, [K-H-K-H-K-H-K-H-K-G-K-H-K-H-K-H-K-H-K]4K3]	2/2	2/2	–	2/2	2/2	–	–
I: KHHHNHHHKHHHKHHHKKKK / II: KHHHNHHHKHHHKHHHK / III: KHHHNHHHKHHHKHHHK / IV: KHHHNHHHKHHHKHHHK (amide I:18-IV:C, I:19-III:C, I:20-II:C) [H^3KN4b, [K-H-H-H-N-H-H-H-K-H-H-H-K-H-H-H-K]4K3]	–	–	–	–	–	–	antimicrobial activity (in words) [1]: moderate antimicrobial activity
